Measurements published in patent publication US20110124564A1, “NUCLEOLIN-BINDING PEPTIDES, NUCLEOLIN- BINDING LYTIC PEPTIDES, FUSION CONSTRUCTS AND METHODS OF MAKING AND USING SAME” (ESPERANCE PHARMACEUTICALS, INC., published 2011).
Several values for one entry are separate records, joined by “and”; a condition that tells them apart may be missing. Identical values can stand only once. Like-named read-outs stand apart in the source and are kept apart here. Blank lines part the entries; values can stand above or below the molecule they belong to. Residues, ends and D or L forms follow the SMILES beside them.

Experiments:
[1] = test system: MDA-MB-435S breast cancer cells; format: cell-based, human
Method: Twelve different fusion constructs were analyzed for anti-cancer activity in vitro against MDA-MB-435S breast cancer cells and for hemolytic activity in vitro to human red blood cells. Fusion constructs of the following sequence were tested:
The peptide conjugates were freshly dissolved in saline and added into cancer cell seeded multi-well plates at increasing concentrations of 0, 0.001, 0.01, 0.1, 1, 2, 5, 10 and 100 μM. Incubations were conducted for 4 h at 37° C. Cell viability was determined using formazan conversion assays (MTT assays). Controls were treated with USP saline or 0.1% TritonX-100™ as reference for 0 and 100% cell death, respectively. Cytotoxicity was evaluated as an IC50 value.

human red blood cells = experiment: Hemolytic activity; format: cell-based
Method: Hemolytic activity was studied by incubating the fusion constructs with human red blood cells at concentrations of 0.01, 0.1, 1, 10 and 50 μM for 2 hours. Saline and 0.1% Triton served as controls.
Hemolytic activity of the compounds was studied by incubating EP-301 and EP-302 with human red blood cells at concentrations of 0.01, 0.1, 1, 10 and 50 μM for 2 hours.

[2] = biological target: nucleolin expressed on the surface of human cancer cell lines (human, UniProt P19338); experiment: cell-based or functional assay
[3] = MDA-MB-435S, 4 h at 37° C, MTT, read-out: IC50

Molecule: CC(C)C[C@H](NC(=O)[C@H](CCCNC(=N)N)NC(=O)[C@H](C)NC(=O)[C@H](CO)NC(=O)[C@H](CCCNC(=N)N)NC(=O)[C@H](CCCNC(=N)N)NC(=O)[C@H](CCC(N)=O)NC(=O)[C@H](CC(C)C)NC(=O)[C@H](CCCNC(=N)N)NC(=O)[C@H](CCCCN)NC(=O)[C@H](C)NC(=O)[C@H](Cc1ccccc1)NC(=O)[C@H](CCCCN)NC(=O)[C@H](CCCCN)NC(=O)[C@H](C)NC(=O)[C@H](Cc1ccccc1)NC(=O)[C@H](CCCCN)NC(=O)[C@H](C)NC(=O)[C@H](Cc1ccccc1)NC(=O)[C@H](CCCCN)NC(=O)[C@H](CCCCN)NC(=O)[C@H](C)NC(=O)[C@H](Cc1ccccc1)NC(=O)[C@H](CCCCN)NC(=O)[C@H](C)NC(=O)[C@H](Cc1ccccc1)NC(=O)[C@@H](N)CCCCN)C(=O)N[C@@H](CO)C(=O)N[C@@H](C)C(=O)N[C@@H](CCCCN)C(=O)O (H-KFAKFAKKFAKFAKKFAKRLQRRSARLSAK-OH)
IC50 [1, 3]: 2200 ± 300 nM | HA50 (human red blood cells; human red blood cells, 2 hours): 56 µM | HA50 (human red blood cells; human red blood cells, 2 hours, listed as KFAKFAKKFAKFAICKFAKR19LQRRSARLSAK30): 56 ± 8.5 µM

IC50 ([1]; 4 h): 3600 nM
Molecule: CC(C)C[C@H](NC(=O)[C@H](CCCNC(=N)N)NC(=O)[C@H](C)NC(=O)[C@H](CCCNC(=N)N)NC(=O)[C@H](CCCCN)NC(=O)[C@H](C)NC(=O)[C@H](Cc1ccccc1)NC(=O)[C@H](CCCCN)NC(=O)[C@H](CCCCN)NC(=O)[C@H](C)NC(=O)[C@H](Cc1ccccc1)NC(=O)[C@H](CCCCN)NC(=O)[C@H](C)NC(=O)[C@H](Cc1ccccc1)NC(=O)[C@H](CCCCN)NC(=O)[C@H](CCCCN)NC(=O)[C@H](C)NC(=O)[C@H](Cc1ccccc1)NC(=O)[C@H](CCCCN)NC(=O)[C@H](C)NC(=O)[C@H](Cc1ccccc1)NC(=O)[C@@H](N)CCCCN)C(=O)N[C@@H](CCC(N)=O)C(=O)O (H-KFAKFAKKFAKFAKKFAKRARLQ-OH)

IC50 ([1]; 4 h): 7300 nM
Molecule: CC(C)C[C@H](NC(=O)[C@H](CCCNC(=N)N)NC(=O)[C@H](C)NC(=O)[C@H](CO)NC(=O)[C@H](CCCNC(=N)N)NC(=O)[C@H](CCCNC(=N)N)NC(=O)[C@H](CCC(N)=O)NC(=O)[C@@H]1CCCN1C(=O)[C@H](C)NC(=O)[C@H](CCCNC(=N)N)NC(=O)[C@H](CCCCN)NC(=O)[C@H](CCCCN)NC(=O)[C@H](C)NC(=O)[C@H](Cc1ccccc1)NC(=O)[C@H](CCCCN)NC(=O)[C@H](CCCCN)NC(=O)[C@H](C)NC(=O)[C@H](Cc1ccccc1)NC(=O)[C@H](CCCCN)NC(=O)[C@H](C)NC(=O)[C@H](Cc1ccccc1)NC(=O)[C@H](CCCCN)NC(=O)[C@H](CCCCN)NC(=O)[C@H](C)NC(=O)[C@H](Cc1ccccc1)NC(=O)[C@H](CCCCN)NC(=O)[C@H](C)NC(=O)[C@H](Cc1ccccc1)NC(=O)[C@@H](N)CCCCN)C(=O)N[C@@H](CO)C(=O)N[C@@H](C)C(=O)N[C@@H](CCCCN)C(=O)O (H-KFAKFAKKFAKFAKKFAKKRAPQRRSARLSAK-OH; N-terminus and C-terminus assumed)
HA50 (human red blood cells): Not hemolytic

IC50 ([1]; 4 h): 400 ± 2 nM
Molecule: CC(C)C[C@H](NC(=O)[C@H](CCCNC(=N)N)NC(=O)[C@H](C)NC(=O)[C@H](Cc1ccccc1)NC(=O)[C@H](CCCNC(=N)N)NC(=O)[C@H](CCCNC(=N)N)NC(=O)[C@H](CCC(N)=O)NC(=O)[C@H](CC(C)C)NC(=O)[C@H](CCCNC(=N)N)NC(=O)[C@H](C)NC(=O)[C@@H](NC(=O)[C@H](CCCCN)NC(=O)[C@H](C)NC(=O)[C@H](Cc1ccccc1)NC(=O)[C@H](CCCCN)NC(=O)[C@H](CCCCN)NC(=O)[C@H](C)NC(=O)[C@H](Cc1ccccc1)NC(=O)[C@H](CCCCN)NC(=O)[C@H](C)NC(=O)[C@H](Cc1ccccc1)NC(=O)[C@H](CCCCN)NC(=O)[C@H](CCCCN)NC(=O)[C@H](C)NC(=O)[C@H](Cc1ccccc1)NC(=O)[C@H](CCCCN)NC(=O)[C@H](C)NC(=O)[C@H](Cc1ccccc1)NC(=O)[C@@H](N)CCCCN)C(C)C)C(=O)N[C@@H](Cc1ccccc1)C(=O)N[C@@H](C)C(=O)N[C@@H](CCCCN)C(=O)O (H-KFAKFAKKFAKFAKKFAKVARLQRRFARLFAK-OH)

Molecule: CC(C)C[C@H](NC(=O)[C@H](CCCNC(=N)N)NC(=O)[C@H](C)NC(=O)[C@H](Cc1ccccc1)NC(=O)[C@H](CCCCN)NC(=O)[C@H](C)NC(=O)[C@H](Cc1ccccc1)NC(=O)[C@H](CCCCN)NC(=O)[C@H](CCCCN)NC(=O)[C@H](C)NC(=O)[C@H](Cc1ccccc1)NC(=O)[C@H](CCCCN)NC(=O)[C@H](C)NC(=O)[C@H](Cc1ccccc1)NC(=O)[C@H](CCCCN)NC(=O)[C@H](CCCCN)NC(=O)[C@H](C)NC(=O)[C@H](Cc1ccccc1)NC(=O)[C@H](CCCCN)NC(=O)[C@H](C)NC(=O)[C@H](Cc1ccccc1)NC(=O)[C@@H](N)CCCCN)C(=O)N[C@@H](Cc1ccccc1)C(=O)N[C@@H](C)C(=O)N[C@@H](CCCCN)C(=O)O (H-KFAKFAKKFAKFAKKFAKFARLFAK-OH)
IC50 [1, 3]: 1230 ± 700 nM | HA50 (human red blood cells; human red blood cells, 2 hours): 14.3 µM and 14.3 ± 2.1 µM

Molecule: CC(C)C[C@H](NC(=O)[C@H](CCCNC(=N)N)NC(=O)[C@H](C)NC(=O)[C@H](Cc1ccccc1)NC(=O)[C@H](CCCNC(=N)N)NC(=O)[C@H](CCCNC(=N)N)NC(=O)[C@H](CCC(N)=O)NC(=O)[C@H](CC(C)C)NC(=O)[C@H](CCCNC(=N)N)NC(=O)[C@H](CCCCN)NC(=O)[C@H](C)NC(=O)[C@H](Cc1ccccc1)NC(=O)[C@H](CCCCN)NC(=O)[C@H](CCCCN)NC(=O)[C@H](C)NC(=O)[C@H](Cc1ccccc1)NC(=O)[C@H](CCCCN)NC(=O)[C@H](C)NC(=O)[C@H](Cc1ccccc1)NC(=O)[C@H](CCCCN)NC(=O)[C@H](CCCCN)NC(=O)[C@H](C)NC(=O)[C@H](Cc1ccccc1)NC(=O)[C@H](CCCCN)NC(=O)[C@H](C)NC(=O)[C@H](Cc1ccccc1)NC(=O)[C@@H](N)CCCCN)C(=O)N[C@@H](Cc1ccccc1)C(=O)N[C@@H](C)C(=O)N[C@@H](CCCCN)C(=O)O (H-KFAKFAKKFAKFAKKFAKRLQRRFARLFAK-OH)
IC50 [1, 3]: 740 ± 120 nM

IC50 ([1]; 4 h): 800 ± 160 nM
Molecule: CC(C)C[C@H](NC(=O)[C@H](CCCNC(=N)N)NC(=O)[C@H](C)NC(=O)[C@@H](NC(=O)[C@H](CCCCN)NC(=O)[C@H](C)NC(=O)[C@H](Cc1ccccc1)NC(=O)[C@H](CCCCN)NC(=O)[C@H](CCCCN)NC(=O)[C@H](C)NC(=O)[C@H](Cc1ccccc1)NC(=O)[C@H](CCCCN)NC(=O)[C@H](C)NC(=O)[C@H](Cc1ccccc1)NC(=O)[C@H](CCCCN)NC(=O)[C@H](CCCCN)NC(=O)[C@H](C)NC(=O)[C@H](Cc1ccccc1)NC(=O)[C@H](CCCCN)NC(=O)[C@H](C)NC(=O)[C@H](Cc1ccccc1)NC(=O)[C@@H](N)CCCCN)C(C)C)C(=O)N[C@@H](CCC(N)=O)C(=O)N[C@@H](CCCNC(=N)N)C(=O)N[C@@H](CCCNC(=N)N)C(=O)N[C@@H](Cc1ccccc1)C(=O)N[C@@H](C)C(=O)O (H-KFAKFAKKFAKFAKKFAKVARLQRRFA-OH)
HA50 (human red blood cells): Not hemolytic

IC50 ([1]; 4 h): 4100 nM
Molecule: CC(C)C[C@H](NC(=O)[C@H](CCCNC(=N)N)NC(=O)[C@H](C)NC(=O)[C@H](CO)NC(=O)[C@H](CCCCN)NC(=O)[C@H](C)NC(=O)[C@H](Cc1ccccc1)NC(=O)[C@H](CCCCN)NC(=O)[C@H](CCCCN)NC(=O)[C@H](C)NC(=O)[C@H](Cc1ccccc1)NC(=O)[C@H](CCCCN)NC(=O)[C@H](C)NC(=O)[C@H](Cc1ccccc1)NC(=O)[C@H](CCCCN)NC(=O)[C@H](CCCCN)NC(=O)[C@H](C)NC(=O)[C@H](Cc1ccccc1)NC(=O)[C@H](CCCCN)NC(=O)[C@H](C)NC(=O)[C@H](Cc1ccccc1)NC(=O)[C@@H](N)CCCCN)C(=O)N[C@@H](CO)C(=O)N[C@@H](C)C(=O)N[C@@H](CCCCN)C(=O)O (H-KFAKFAKKFAKFAKKFAKSARLSAK-OH)

Molecule: KFAKFAKKFAKFAKKFAKRARLQ [KFAKFAKKFAKFAKKFAKR19ARLQ23]
IC50 of cytotoxicity (MTT), MDA-MB-435S breast cancer cells, 4 h [2]: 3.6 µM

Molecule: KFAKFAKKFAKFAKKFAKRARLQRRF [KFAKFAKKFAKFAKKFAKR19ARLQRRF26]
IC50 of cytotoxicity (MTT), MDA-MB-435S breast cancer cells, 4 h [2]: 0.87 µM

Molecule: KFAKFAKKFAKFAKKFAKKRAPQRRSARLSAK [KFAKFAKKFAKFAKKFAKK19RAPQRRSARLSAK32]
IC50 of cytotoxicity (MTT), MDA-MB-435S breast cancer cells, 4 h [2]: 7.3 µM

Molecule: KFAKFAKKFAKFAKKFAKFARLFAK [KFAKFAKKFAKFAKKFAKF19ARLFAK25]
IC50 of cytotoxicity (MTT), MDA-MB-435S breast cancer cells, 4 h [2]: 1.23 µM

Molecule: KFAKFAKKFAKFAKKFAKSARLSAK [KFAKFAKKFAKFAKKFAKS19ARLSAK25]
IC50 of cytotoxicity (MTT), MDA-MB-435S breast cancer cells, 4 h [2]: 4.1 µM

Molecule: KFAKFAKKFAKFAKKFAKRARLQRR [KFAKFAKKFAKFAKKFAKR19ARLQRR25]
IC50 of cytotoxicity (MTT), MDA-MB-435S breast cancer cells, 4 h [2]: 1.6 µM

Molecule: KFAKFAKKFAKFAKKFAKVARLQRRFARLFAK [KFAKFAKKFAKFAKKFAKV19ARLQRRFARLFAK32]
IC50 of cytotoxicity (MTT), MDA-MB-435S breast cancer cells, 4 h [2]: 0.4 µM

Molecule: KFAKFAKKFAKFAKKFAKVARLQRRFA [KFAKFAKKFAKFAKKFAKV19ARLQRRFA27]
IC50 of cytotoxicity (MTT), MDA-MB-435S breast cancer cells, 4 h [2]: 0.8 µM

Molecule: KFAKFAKKFAKFAKKFAKRLQRRFARLFAK [KFAKFAKKFAKFAKKFAKR19LQRRFARLFAK30]
IC50 of cytotoxicity (MTT), MDA-MB-435S breast cancer cells, 4 h [2]: 0.74 µM

Molecule: KFAKFAKKFAKFAKKFAKRLQRRSARLSAK [KFAKFAKKFAKFAKKFAKR19LQRRSARLSAK30]
IC50 of cytotoxicity (MTT), MDA-MB-435S breast cancer cells, 4 h [2]: 2.2 µM
